Measurements taken from patent US10239851B2 (priority 2014, dated 2019).
Like-named read-outs stand apart in the source and are kept apart here.

Tests used:
[1] = rat plasma, 37° C.
Experimental: (§1) 0.1 ml samples were taken from each of the solutions, added respectively to 1 ml of blood plasma of rabbit (taken from New Zealand white rabbits, treated according to conventional methods, anticoagulated with heparin) or 1 ml of blood plasma of rat (taken from live SD rats, treated according to conventional methods, anticoagulated with heparin), homogeneously mixed, and placed in a thermostatic water bath at 37° C. for incubation with time being recorded. Samples were taken at different time points after the experiment began, and 2 ml of acetonitrile was immediately added. The samples were shaken and centrifuged for 5 min (15,000 rpm), and the supernatant was then taken for HPLC analysis.

[2] = rabbit plasma, 37° C.; for Sampling time/dissociation percent (%) 15 s / Sampling time/dissociation percent (%) 30 s: formula F derivatives; for Sampling time/dissociation percent (%) 15 S / Sampling time/dissociation percent (%) 30 S: formula G derivatives
Experimental: as §1

[3] = In vitro dissociation of the water soluble taxane derivatives in blood plasma of rat; type: in vitro ADME, SD rats; conditions: 37° C.
Experimental: The obtained water soluble taxane derivatives were formulated as 0.2 mg/ml aqueous solutions. […] After 2 min, 5 min and 10 min of incubation, 0.2 ml of solutions were respectively taken from each of the samples, and added to acetonitrile (0.4 ml) cooled to −20° C. for precipitation of protein.

[4] = tested on: human ovarian cancer SK-OV-3; conditions: 24 mg/kg (paclitaxel 16 mg/kg) D0-4 IV
Excerpt: Test of the inhibitory activity of the water soluble paclitaxel derivatives on subcutaneously xenografted tumor of human ovarian cancer SK-OV-3 in nude mice: evaluating and comparing the inhibitory activity of the water soluble paclitaxel derivatives of the present invention, paclitaxel and Abraxane® on subcutaneously xenografted tumor of human ovarian cancer SK-OV-3 in nude mice.
Human ovarian cancer SK-OV-3 cells were subcutaneously inoculated to nude mice. After the tumor volume reached 100-150 mm^3, the animals were randomly divided into groups (D0), and administered with the water soluble paclitaxel derivatives of the present invention, paclitaxel, and Abraxane®, respectively once per day for 5 days. The tumor volume was measured 2-3 times per week, the animals were weighed and the data were recorded until day 22 (D22) after grouping.
The tumor volume (V) was calculated according to the equation: V=½×a×b^2, wherein a and b represent the length and the width, respectively.
T/C (%)=(T−T0)/(C−C0)×100, wherein T and C represent the tumor volume at the end of the experiment; and T0 and C0 represent the tumor volume at the beginning of the experiment.

[5] = In vitro dissociation of the water soluble taxane derivatives in blood plasma of rabbit; type: in vitro ADME, New Zealand white rabbits; conditions: 37° C.
Experimental: The obtained water soluble taxane derivatives were formulated as 0.2 mg/ml aqueous solutions. […] After 5 min, 20 min and 60 min of incubation, 0.2 ml of solutions were respectively taken from each of the samples, and added to acetonitrile (0.4 ml) cooled to −20° C. for precipitation of protein.

SMILES	dissociation percent ([1]; 5 s) [%]	dissociation percent ([2]; 15 s) [%]	dissociation percent ([2]; 30 s) [%]	Sampling time/dissociation percent (%) 5 s ([1]; formula F derivatives) [%]	Sampling time/dissociation percent (%) 15 s [2] [%]	Sampling time/dissociation percent (%) 30 s [2] [%]	other results
CC(C)c1cccc(C(C)C)c1OC(=O)C(F)CCN(C)C.Cl (racemic) [Compound E1, Propofol 4-(N,N-dimethyl)amino-2(R,S)-fluorobutyrate Hydrochloride]	75.1	67.5	85.5	–	–	–	dissociation percent ([1]; 15 s): 83.2%; dissociation percent ([1]; 30 s): 96.7%
CCN(C)CCC(F)C(=O)Oc1c(C(C)C)cccc1C(C)C.Cl (racemic) [Compound E4, propofol 4-(N-methyl-N-ethyl)amino-2(R,S)-2-fluorobutyrate hydrochloride]	70.2	58.3	70.4	–	–	–	–
CC(C)NCC(CF)C(=O)Oc1c(C(C)C)cccc1C(C)C.CS(=O)(=O)O (racemic) [Compound E6, propofol 3-(N-isopropyl)amino-2(R,S)-2-monofluoromethylpropionate methanesulfonate]	24.2	27.1	44.3	–	–	–	dissociation percent ([1]; 15 s): 40.1%
CC(C)c1cccc(C(C)C)c1OC(=O)C(F)CCCCCC(=O)[O-].CC(C)c1cccc(C(C)C)c1OC(=O)C(F)CCCCCC(=O)[O-].[Ca+2] (racemic) [Compound F4, di[propofol 7-carboxyl-2(R,S)-fluorocaprylate] calcium salt]	–	–	–	63.8	48.3	61.7	–
CC(C)c1cccc(C(C)C)c1OC(=O)C(CF)CCCCCCC(=O)[O-].CC(C)c1cccc(C(C)C)c1OC(=O)C(CF)CCCCCCC(=O)[O-].CC(C)c1cccc(C(C)C)c1OC(=O)C(CF)CCCCCCC(=O)[O-].[Al+3] (racemic) [Compound F6, tri[propofol 8-carboxyl-2(R,S)-monofluoromethylpelargonate] aluminum salt]	–	–	–	34.2	37.1	58.3	Sampling time/dissociation percent (%) 15 s ([1]; formula F derivatives): 55.7%
CC(C)c1cccc(C(C)C)c1OC(=O)C(F)CCOP(=O)([O-])[O-].[K+].[K+] (racemic) [Compound G1, {1-[4-(2,6-diisopropylphenoxy)-4-oxo-3-(R,S)-3-fluoro-1-butyl]} phosphate monoester dipotassium salt]	–	–	–	–	–	–	Sampling time/dissociation percent (%) 5 S ([1]; formula G derivatives): 54.1%; Sampling time/dissociation percent (%) 15 S ([1]; formula G derivatives): 67.4%; Sampling time/dissociation percent (%) 30 S ([1]; formula G derivatives, sampling time 30 s): 86.9%; Sampling time/dissociation percent (%) 15 S [2]: 43.7%; Sampling time/dissociation percent (%) 30 S [2]: 68.7%
CC(C)c1cccc(C(C)C)c1OC(=O)C(CF)CP(=O)([O-])[O-].CC(C)c1cccc(C(C)C)c1OC(=O)C(CF)CP(=O)([O-])[O-].CC(C)c1cccc(C(C)C)c1OC(=O)C(CF)CP(=O)([O-])[O-].[Al+3].[Al+3] (racemic) [Compound G6, tri[propofol 3-phosphoryl-2(R,S)-2-monofluoromethylpropionate] dialuminum salt]	–	–	–	–	–	–	Sampling time/dissociation percent (%) 5 S ([1]; formula G derivatives): 22.1%; Sampling time/dissociation percent (%) 15 S ([1]; formula G derivatives): 39.7%; Sampling time/dissociation percent (%) 15 S [2]: 27.1%; Sampling time/dissociation percent (%) 30 S [2]: 44.3%
CC(=O)O[C@H]1C(=O)[C@@]2(C)[C@H]([C@H](OC(=O)c3ccccc3)[C@]3(O)C[C@H](OC(=O)[C@H](OC(=O)C(F)CCN(C)C)[C@@H](NC(=O)c4ccccc4)c4ccccc4)C(C)=C1C3(C)C)[C@]1(OC(C)=O)CO[C@@H]1C[C@@H]2O.CS(=O)(=O)O (stereo partly drawn) [Compound C3, 2′-O-[4-(N,N-dimethyl)amino-2(R,S)-fluorobutyryl]paclitaxel methanesulfonate]	–	–	–	–	–	–	dissociation percent ([3]; 2 min): 63.7%; dissociation percent ([3]; 5 min): 96.8%; dissociation percent ([3]; 10 min): 100%; Weight change (%) D4 ([4]; D4): −6.0%; T/C (%) D22 ([4]; D22): −64%; Tumor volume (D22) ([4]; D22): 50.6 ± 9.7 mm^3; Tumor inhibitory percent (%) D22 ([4]; D22, P=0.000 compared to the control): 165%; dissociation percent ([5]; 5 min): 76.5%; dissociation percent ([5]; 20 min): 94.6%; dissociation percent ([5]; 60 min): 100%
CC(C)c1cccc(C(C)C)c1OC(=O)[C@@H](CCN(C)C)C(F)(F)F.Cl [Compound E3, propofol 4-(N,N-dimethyl)amino-2(R)-2-trifluoromethylbutyrate hydrochloride]	77.5	51.7	67.2	–	–	–	–
CC(C)c1cccc(C(C)C)c1OC(=O)[C@@H](F)CCCN(C)Cc1ccccc1.Cl [Compound E5, propofol 5-(N-methyl-N-benzyl)amino-2(S)-2-fluorovalerate hydrochloride]	72.3	48.4	69.7	–	–	–	dissociation percent ([1]; 15 s): 97.3%
CC(C)c1cccc(C(C)C)c1OC(=O)[C@@H](F)CCN1CC1.Cl [Compound E7, propofol 4-N-(aziridin-1-yl)-2(S)-2-fluorobutyrate hydrochloride]	92.3	89.4	94.4	–	–	–	–
CC(C)c1cccc(C(C)C)c1OC(=O)[C@H](F)CCN1CCCC1.Cl [Compound E8, propofol 4-(pyrrolidin-1-yl)-2(R)-2-fluorobutyrate hydrochloride]	95.6	91.1	98.2	–	–	–	–
CC(C)c1cccc(C(C)C)c1OC(=O)C(F)CCC(=O)[O-].[K+] [Compound F2, propofol 4-carboxyl-2(S)-fluorovalerate potassium salt]	–	–	–	92.3	73.4	94.8	–
CC(C)c1cccc(C(C)C)c1OC(=O)C(CCC(=O)[O-])C(F)(F)F.[Li+] [Compound F3, propofol 4-carboxyl-2(R)-2-trifluoromethyl valerate lithium salt]	–	–	–	47.4	28.4	47.9	–
CC(C)c1cccc(C(C)C)c1OC(=O)C(F)CCCC(=O)[O-].CC(C)c1cccc(C(C)C)c1OC(=O)C(F)CCCC(=O)[O-].[Zn+2] [Compound F5, di[propofol 5-carboxyl-2(S)-fluorohexanoate] zinc salt]	–	–	–	63.2	34.9	58.8	Sampling time/dissociation percent (%) 15 s ([1]; formula F derivatives): 80.3%
CC(C)c1cccc(C(C)C)c1OC(=O)C(F)C(=O)[O-].[Na+] [Compound F8, propofol 2-carboxyl-2(S)-fluoropropionate sodium salt]	–	–	–	55.5	41.2	70.4	Sampling time/dissociation percent (%) 15 s ([1]; formula F derivatives): 69.3%; Sampling time/dissociation percent (%) 30 s ([1]; formula F derivatives, sampling time 30 s): 83.3%
CC(C)c1cccc(C(C)C)c1OC(=O)[C@@H](CCOP(=O)([O-])[O-])C(F)(F)F.[Li+].[Li+] [Compound G3, {1-[4-(2,6-diisopropylphenoxy)-4-oxo-3-(R)-3-trifluoromethyl-1-butyl]} phosphate monoester dilithium salt]	–	–	–	–	–	–	Sampling time/dissociation percent (%) 5 S ([1]; formula G derivatives): 38.7%; Sampling time/dissociation percent (%) 15 S [2]: 21.7%; Sampling time/dissociation percent (%) 30 S [2]: 43.6%
